Test results published in PubChem BioAssay (NCI).
Several values for one entry are separate records, joined by “and”; a condition that tells them apart may be missing. Equal values may be shown once.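 Results reflect a 48-hour exposure of cells in 96-well plates to compound at five concentrations. GI50 marks 50% less growth. TGI denotes the concentration required for complete inhibition of growth.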

system: SK-OV-3 ovarian; assay: inhibition of tumour cell growth, NCI panel, 48 h

Compound | TGI
Cc1ccc(/C=N\NC2c3cc(Cl)ccc3Nc3nc(=O)[nH]c(C)c32)cc1 (centres undefined) | > 100 µM
O=C(O)COc1ccccc1C(=O)Nc1ccccc1 | > 100 µM
O=C(/C=C/c1ccccc1)Oc1ccc(C(=O)/C=C/c2ccccc2)cc1 | > 31.6 µM
COc1cc2c(cc1OC)C(C(c1ccccc1)c1ccccc1)N(C)CC2 (centres undefined) | > 100 µM
CCOC(=O)N1CCC(N[C@@H]2c3cc4c(cc3C(c3cc(OC)c(O)c(OC)c3)C3C(=O)OC[C@@H]32)OCO4)CC1 (some centres undefined) | 4.6 µM and 4.45 µM
C[N+](C)([O-])CCOc1cc2c(c3ccccc13)-c1ccccc1C2=O | > 100 µM
C/C(C[n+]1ccccc1)=N\N=C(N)N | > 100 µM
O=[N+]([O-])C(=C(Nc1cccc2cccnc12)Nc1cccc2cccnc12)C(Cl)=C(Cl)Cl | > 100 µM
NS(=O)(=O)c1ccc(NC(=S)/N=C/C2=C(O)c3ccccc3C2=O)cc1 | > 100 µM
Cc1nc(C)c(C(=O)NNC(=O)C[N+](C)(C)C)cc1C(=O)NNC(=O)C[N+](C)(C)C | > 100 µM
NCCCN1c2ccccc2Sc2ccc(Cl)cc21 | > 10 µM
CCOC(=O)c1cccc(N=Nc2nc[nH]c2/C=C/C(=O)OC)c1 | > 100 µM
Clc1ccc(-c2nnc3sc4nc5ccccc5c-4nn23)c(Cl)c1 | > 100 µM
CCCCCCCCCCCCCCCCNc1cccc2ccccc12 | > 100 µM
C=C(C(=O)OCC)C(=O)OCC | > 100 µM
O=C1OCC/C1=N/O | > 100 µM
CC(O)CNC(=O)C(C)Oc1ccc(OCC2CCCCC2)cc1 (centres undefined) | > 100 µM
N#CC(C#N)=C1SC(=Nc2ccccc2)C(=Nc2ccccc2)N1c1ccccc1 | > 100 µM
Cc1ccc(S(=O)(=O)n2c3c(c4ccccc42)CCN2C[C@H]([C@H](C)Br)CC[C@@H]32)cc1 | > 100 µM
O=C1c2cc(-c3ccccc3)cnc2S(=O)(=O)N1c1ccc(Br)cc1 | 53.9 µM
CC(=NNC(=S)Nc1ccccc1)c1cccc(C(C)=NNC(=S)Nc2ccccc2)n1 | > 84.5 µM
COC1=CC(=O)c2c(c(-c3nc(C)cs3)cn2C)C1=O | > 100 µM
O=P(O)(O)C(N=C(Nc1ccccc1)Nc1ccccc1)P(=O)(O)O | > 100 µM
CCOS(C)(=O)=O | > 100 µM
CC(C)SC(=S)Sc1c(Cl)c(Cl)nc(Cl)c1Cl | 32.7 µM
CCCCCCCCCCCC[S+](C)C | 21.7 µM
CC(C)(C)[Si](C)(C)OCC1OC(n2ccc(=O)[nH]c2=O)C(O[Si](C)(C)C(C)(C)C)/C1=C/C#N (centres undefined) | > 100 µM

system: SK-MEL-5 melanoma; assay: inhibition of tumour cell growth, NCI panel, 48 h

Compound | TGI
O=C(O)COc1ccccc1C(=O)Nc1ccccc1 | > 100 µM
O=C(/C=C/c1ccccc1)Oc1ccc(C(=O)/C=C/c2ccccc2)cc1 | 37 µM
COc1cc2c(cc1OC)C(C(c1ccccc1)c1ccccc1)N(C)CC2 (centres undefined) | 47.6 µM
CCOC(=O)N1CCC(N[C@@H]2c3cc4c(cc3C(c3cc(OC)c(O)c(OC)c3)C3C(=O)OC[C@@H]32)OCO4)CC1 (some centres undefined) | 5.71 µM and 5.32 µM
C[N+](C)([O-])CCOc1cc2c(c3ccccc13)-c1ccccc1C2=O | 28.7 µM
C/C(C[n+]1ccccc1)=N\N=C(N)N | > 100 µM
O=[N+]([O-])C(=C(Nc1cccc2cccnc12)Nc1cccc2cccnc12)C(Cl)=C(Cl)Cl | 30.5 µM
NS(=O)(=O)c1ccc(NC(=S)/N=C/C2=C(O)c3ccccc3C2=O)cc1 | > 100 µM
Cc1nc(C)c(C(=O)NNC(=O)C[N+](C)(C)C)cc1C(=O)NNC(=O)C[N+](C)(C)C | > 100 µM
NCCCN1c2ccccc2Sc2ccc(Cl)cc21 | > 5.52 µM
CCOC(=O)c1cccc(N=Nc2nc[nH]c2/C=C/C(=O)OC)c1 | 36.9 µM
Clc1ccc(-c2nnc3sc4nc5ccccc5c-4nn23)c(Cl)c1 | > 100 µM
C=C(C(=O)OCC)C(=O)OCC | > 100 µM
O=C1OCC/C1=N/O | > 100 µM
CC(O)CNC(=O)C(C)Oc1ccc(OCC2CCCCC2)cc1 (centres undefined) | > 100 µM
N#CC(C#N)=C1SC(=Nc2ccccc2)C(=Nc2ccccc2)N1c1ccccc1 | 28.7 µM
Cc1ccc(S(=O)(=O)n2c3c(c4ccccc42)CCN2C[C@H]([C@H](C)Br)CC[C@@H]32)cc1 | > 100 µM
O=C1c2cc(-c3ccccc3)cnc2S(=O)(=O)N1c1ccc(Br)cc1 | > 100 µM
CC(=NNC(=S)Nc1ccccc1)c1cccc(C(C)=NNC(=S)Nc2ccccc2)n1 | > 40.1 µM
COC1=CC(=O)c2c(c(-c3nc(C)cs3)cn2C)C1=O | 2.88 µM
O=P(O)(O)C(N=C(Nc1ccccc1)Nc1ccccc1)P(=O)(O)O | > 100 µM
CCOS(C)(=O)=O | > 100 µM
CC(C)SC(=S)Sc1c(Cl)c(Cl)nc(Cl)c1Cl | 29.1 µM
CCCCCCCCCCCC[S+](C)C | 9.25 µM
CC(C)(C)[Si](C)(C)OCC1OC(n2ccc(=O)[nH]c2=O)C(O[Si](C)(C)C(C)(C)C)/C1=C/C#N (centres undefined) | 11.9 µM

system: DLD-1 colon; assay: inhibition of tumour cell growth, NCI panel, 48 h

Compound | TGI
Cc1ccc(/C=N\NC2c3cc(Cl)ccc3Nc3nc(=O)[nH]c(C)c32)cc1 (centres undefined) | > 100 µM
O=C(O)COc1ccccc1C(=O)Nc1ccccc1 | > 100 µM
COc1cc2c(cc1OC)C(C(c1ccccc1)c1ccccc1)N(C)CC2 (centres undefined) | > 100 µM
CCOC(=O)N1CCC(N[C@@H]2c3cc4c(cc3C(c3cc(OC)c(O)c(OC)c3)C3C(=O)OC[C@@H]32)OCO4)CC1 (some centres undefined) | 30.6 µM and 14.3 µM
C[N+](C)([O-])CCOc1cc2c(c3ccccc13)-c1ccccc1C2=O | > 100 µM
CCOC(=O)C1S/C(=N\C(=N)N[N+](=O)[O-])N=C1C (centres undefined) | > 100 µM
CCCCCCCCCCCCCCCCNc1cccc2ccccc12 | > 100 µM
O=C1OCC/C1=N/O | > 100 µM
CCCCCCCCCCCC[S+](C)C | 25.9 µM

system: OVCAR-5 ovarian; assay: inhibition of tumour cell growth, NCI panel, 48 h

Compound | TGI | GI50
O=C(O)COc1ccccc1C(=O)Nc1ccccc1 | > 100 µM | 
O=C(/C=C/c1ccccc1)Oc1ccc(C(=O)/C=C/c2ccccc2)cc1 | 21.4 µM | 
COc1cc2c(cc1OC)C(C(c1ccccc1)c1ccccc1)N(C)CC2 (centres undefined) | > 100 µM | 
CCOC(=O)N1CCC(N[C@@H]2c3cc4c(cc3C(c3cc(OC)c(O)c(OC)c3)C3C(=O)OC[C@@H]32)OCO4)CC1 (some centres undefined) | 14 µM and 17.4 µM | 3.3 µM and 7.49 µM
C[N+](C)([O-])CCOc1cc2c(c3ccccc13)-c1ccccc1C2=O | 59.2 µM | 
CCOC(=O)C1S/C(=N\C(=N)N[N+](=O)[O-])N=C1C (centres undefined) | > 100 µM | 
C/C(C[n+]1ccccc1)=N\N=C(N)N | > 100 µM | 
O=[N+]([O-])C(=C(Nc1cccc2cccnc12)Nc1cccc2cccnc12)C(Cl)=C(Cl)Cl | > 100 µM | 
NS(=O)(=O)c1ccc(NC(=S)/N=C/C2=C(O)c3ccccc3C2=O)cc1 | > 100 µM | 
Cc1nc(C)c(C(=O)NNC(=O)C[N+](C)(C)C)cc1C(=O)NNC(=O)C[N+](C)(C)C | > 100 µM | 
NCCCN1c2ccccc2Sc2ccc(Cl)cc21 | > 9.34 µM | 
CCOC(=O)c1cccc(N=Nc2nc[nH]c2/C=C/C(=O)OC)c1 | > 100 µM | 
Clc1ccc(-c2nnc3sc4nc5ccccc5c-4nn23)c(Cl)c1 | > 100 µM | 
C=C(C(=O)OCC)C(=O)OCC | > 100 µM | 
O=C1OCC/C1=N/O | > 100 µM | 
N#CC(C#N)=C1SC(=Nc2ccccc2)C(=Nc2ccccc2)N1c1ccccc1 | 47.3 µM | 
Cc1ccc(S(=O)(=O)n2c3c(c4ccccc42)CCN2C[C@H]([C@H](C)Br)CC[C@@H]32)cc1 | > 100 µM | 
O=C1c2cc(-c3ccccc3)cnc2S(=O)(=O)N1c1ccc(Br)cc1 | > 100 µM | 
CC(=NNC(=S)Nc1ccccc1)c1cccc(C(C)=NNC(=S)Nc2ccccc2)n1 | > 100 µM | 
COC1=CC(=O)c2c(c(-c3nc(C)cs3)cn2C)C1=O | > 43.9 µM | 
O=P(O)(O)C(N=C(Nc1ccccc1)Nc1ccccc1)P(=O)(O)O | > 100 µM | 
CCOS(C)(=O)=O | > 100 µM | 
CC(C)SC(=S)Sc1c(Cl)c(Cl)nc(Cl)c1Cl | 33.1 µM | 
CCCCCCCCCCCC[S+](C)C | 22.5 µM | 
CC(C)(C)[Si](C)(C)OCC1OC(n2ccc(=O)[nH]c2=O)C(O[Si](C)(C)C(C)(C)C)/C1=C/C#N (centres undefined) | > 100 µM | 

system: HCC-2998 colon; assay: inhibition of tumour cell growth, NCI panel, 48 h

Compound | TGI | GI50
Cc1ccc(/C=N\NC2c3cc(Cl)ccc3Nc3nc(=O)[nH]c(C)c32)cc1 (centres undefined) | > 100 µM | 
O=C(/C=C/c1ccccc1)Oc1ccc(C(=O)/C=C/c2ccccc2)cc1 | 15.3 µM | 
COc1cc2c(cc1OC)C(C(c1ccccc1)c1ccccc1)N(C)CC2 (centres undefined) | 63.8 µM | 
CCOC(=O)N1CCC(N[C@@H]2c3cc4c(cc3C(c3cc(OC)c(O)c(OC)c3)C3C(=O)OC[C@@H]32)OCO4)CC1 (some centres undefined) | 6.82 µM and 7.22 µM | 1530 nM and 3470 nM
C[N+](C)([O-])CCOc1cc2c(c3ccccc13)-c1ccccc1C2=O | 29.2 µM | 
CCOC(=O)C1S/C(=N\C(=N)N[N+](=O)[O-])N=C1C (centres undefined) | > 100 µM | 
C/C(C[n+]1ccccc1)=N\N=C(N)N | > 100 µM | 
O=[N+]([O-])C(=C(Nc1cccc2cccnc12)Nc1cccc2cccnc12)C(Cl)=C(Cl)Cl | > 100 µM | 
NS(=O)(=O)c1ccc(NC(=S)/N=C/C2=C(O)c3ccccc3C2=O)cc1 | > 100 µM | 
Cc1nc(C)c(C(=O)NNC(=O)C[N+](C)(C)C)cc1C(=O)NNC(=O)C[N+](C)(C)C | > 100 µM | 
NCCCN1c2ccccc2Sc2ccc(Cl)cc21 | 4.2 µM | 
CCOC(=O)c1cccc(N=Nc2nc[nH]c2/C=C/C(=O)OC)c1 | 28.2 µM | 
Clc1ccc(-c2nnc3sc4nc5ccccc5c-4nn23)c(Cl)c1 | > 100 µM | 
CCCCCCCCCCCCCCCCNc1cccc2ccccc12 | > 100 µM | 
C=C(C(=O)OCC)C(=O)OCC | > 100 µM | 
O=C1OCC/C1=N/O | > 100 µM | 
CC(O)CNC(=O)C(C)Oc1ccc(OCC2CCCCC2)cc1 (centres undefined) | > 100 µM | 
N#CC(C#N)=C1SC(=Nc2ccccc2)C(=Nc2ccccc2)N1c1ccccc1 | > 72 µM | 
Cc1ccc(S(=O)(=O)n2c3c(c4ccccc42)CCN2C[C@H]([C@H](C)Br)CC[C@@H]32)cc1 | > 100 µM | 
O=C1c2cc(-c3ccccc3)cnc2S(=O)(=O)N1c1ccc(Br)cc1 | 39.5 µM | 
CC(=NNC(=S)Nc1ccccc1)c1cccc(C(C)=NNC(=S)Nc2ccccc2)n1 | > 100 µM | 
COC1=CC(=O)c2c(c(-c3nc(C)cs3)cn2C)C1=O | 18 µM | 
O=P(O)(O)C(N=C(Nc1ccccc1)Nc1ccccc1)P(=O)(O)O | > 100 µM | 
CCOS(C)(=O)=O | > 100 µM | 
CC(C)SC(=S)Sc1c(Cl)c(Cl)nc(Cl)c1Cl | 12.7 µM | 
CCCCCCCCCCCC[S+](C)C | 16.8 µM | 
CC(C)(C)[Si](C)(C)OCC1OC(n2ccc(=O)[nH]c2=O)C(O[Si](C)(C)C(C)(C)C)/C1=C/C#N (centres undefined) | > 100 µM | 

system: M14 melanoma; assay: inhibition of tumour cell growth, NCI panel, 48 h

Compound | TGI
Cc1ccc(/C=N\NC2c3cc(Cl)ccc3Nc3nc(=O)[nH]c(C)c32)cc1 (centres undefined) | > 100 µM
O=C(O)COc1ccccc1C(=O)Nc1ccccc1 | > 100 µM
O=C(/C=C/c1ccccc1)Oc1ccc(C(=O)/C=C/c2ccccc2)cc1 | 23.3 µM
CCOC(=O)N1CCC(N[C@@H]2c3cc4c(cc3C(c3cc(OC)c(O)c(OC)c3)C3C(=O)OC[C@@H]32)OCO4)CC1 (some centres undefined) | 6.31 µM and 8.14 µM
C/C(C[n+]1ccccc1)=N\N=C(N)N | > 100 µM
O=[N+]([O-])C(=C(Nc1cccc2cccnc12)Nc1cccc2cccnc12)C(Cl)=C(Cl)Cl | > 100 µM
NS(=O)(=O)c1ccc(NC(=S)/N=C/C2=C(O)c3ccccc3C2=O)cc1 | > 100 µM
Cc1nc(C)c(C(=O)NNC(=O)C[N+](C)(C)C)cc1C(=O)NNC(=O)C[N+](C)(C)C | > 100 µM
NCCCN1c2ccccc2Sc2ccc(Cl)cc21 | 3.21 µM
